Experimental findings from patent publication US20230097157A1, “Bicyclic Pyridin-2-one and pyrimidin-4-one Derivatives Useful As a Factor XIa Inhibitors” (Janssen Pharmaceutica NV, priority 2021, published 2023) are described below.

Broadly, the IC50 is the midpoint of a concentration-inhibition curve.

The target of one experiment is human plasma kallikrein (Homo sapiens, UniProt P03952). The experiment in a line: Kallikrein inhibition assay (FLINT) utilizing a quenched AMC peptide substrate Z-Gly-Pro-Arg-AMC. It counts as biochemical. To be noted: kinetic (KIN) reads, read-out: Kallikrein KIN Inh IC50. An excerpt:
Biological Example 2: Kallikrein Inhibition Assay Utilizing a Quenched AMC Peptide Substrate A fluorescence intensity (FLINT) based assay was used to monitor inhibition of human plasma kallikrein. The peptide substrate, Z-Gly-Pro-Arg-AMC (Purchased from Bachem; Catalog #I-1150) was chosen based on its relatively low KM for kallikrein which enables running the assay at lower substrate concentrations to control background fluorescence.
The Kallikrein FLINT assay was used with the following Z-Gly-Pro-Arg-AMC assay buffer: 50 mM Tris, pH 7.5, 100 mM NaCl, 5 mM CaCl2, 0.1 mg/mL BSA, 0.03% CHAPS. Assay buffer was prepared by mixing all ingredients fresh. 2× Z-Gly-Pro-Arg-AMC peptide substrate was prepared by diluting 10 mM stock into 1× assay buffer for a 100 μM working concentration (50 μM final concentration). The 2× kallikrein stock solution was prepared by diluting 14.76 μM stock in 1× assay buffer for a 4 nM working stock solution (2 nM final concentration).
Test compound(s) were run in an 11-point, 3-fold serial dilution with a final top compound concentration of 1 μM. Final DMSO in assay was 2%. Plasma kallikrein was pre-incubated for 30-minute with compound and then 50 μM substrate was added to initiate the reaction. The assay was run with kinetic (KIN) reads at 5 min intervals over 30 minutes. The time course was linear using 2 nM kallikrein greater than 30 minutes. More specifically, the assay was run as follows: • 100 nL of 0.1 mM test compound was dispensed into black 384-well non-binding Greiner BioOne 784900 plate for 1 μM final concentration; • 5 μL of 1× assay buffer was dispensed to columns 24 (low control) and 5 μL 2× human kallikrein enzyme solution was dispensed to columns 1-23 (column 23 high control); • the plate was centrifuged with a “cover” plate at 500 rpm for 1 min • the plate was pre-incubated for 30 minutes at room temperature with plate covered; • 5 μL of 2× Z-Gly-Pro-Arg-AMC peptide substrate was dispensed into the entire plate, columns 1-24; • the plate was centrifuged with a “cover” plate at 500 rpm for 1 min; • the plate was read monitoring fluorescence intensity on the BMG PHERAStar at room temperature, using fluorescence module 340 nm/440 nm.
(§1) Percent inhibition (IC50) curves were generated per compound tested, and data was analyzed using a 4-parameter logistic fit using GeneData Screener. The relative fluorescence unit (RFU) values were normalized to percent inhibition using the following equation:
% inhibition=((HC−LC)−(compound−LC)/(HC−LC))*100 where LC—low control=mean signal of […] or 100% inhibition of human kallikrein enzyme; HC—high control=mean signal of […]+Z-Gly-Pro-Arg-AMC peptide substrate with DMSO only.
(§2) An 11-point dose response curve for the test compound(s) was generated using GENDATA to determine IC50 value based on the following equation:
Y=Bottom+(Top−Bottom)/(1+10^((log IC50−X)*HillSlope)) where Y is the % inhibition in the presence of X inhibitor concentration, Top=high control=mean signal of human kallikrein enzyme+Z-Gly-Pro-Arg-AMC peptide substrate with DMSO only; Bottom=low control−mean signal of no human kallikrein enzyme or 100% inhibition of human kallikrein enzyme; HillSlope−Hill coefficient; and IC50=concentration of compound with 50% inhibition in relation to top/high control.

A further experiment deals with Factor XIa (Homo sapiens, UniProt P03951). The experiment is described as follows: Factor XIa inhibition assay (FLINT) utilizing a fluorophore-quencher pair peptide substrate 5Fam-[…]-K5Tamra. The format is biochemical. Conditions: kinetic (KIN) reads, read-out: FXIa KIN Inh IC50.
Factor XIa, sequence (P03951 388-625 limits assumed): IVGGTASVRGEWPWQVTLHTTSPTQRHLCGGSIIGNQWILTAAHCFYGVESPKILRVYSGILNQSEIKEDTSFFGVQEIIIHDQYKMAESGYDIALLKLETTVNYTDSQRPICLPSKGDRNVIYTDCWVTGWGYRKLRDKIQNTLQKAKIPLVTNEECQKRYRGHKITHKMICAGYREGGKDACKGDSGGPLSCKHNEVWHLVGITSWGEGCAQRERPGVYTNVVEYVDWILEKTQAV
Factor XIa, sequence (P03951 19-387 partner limits assumed): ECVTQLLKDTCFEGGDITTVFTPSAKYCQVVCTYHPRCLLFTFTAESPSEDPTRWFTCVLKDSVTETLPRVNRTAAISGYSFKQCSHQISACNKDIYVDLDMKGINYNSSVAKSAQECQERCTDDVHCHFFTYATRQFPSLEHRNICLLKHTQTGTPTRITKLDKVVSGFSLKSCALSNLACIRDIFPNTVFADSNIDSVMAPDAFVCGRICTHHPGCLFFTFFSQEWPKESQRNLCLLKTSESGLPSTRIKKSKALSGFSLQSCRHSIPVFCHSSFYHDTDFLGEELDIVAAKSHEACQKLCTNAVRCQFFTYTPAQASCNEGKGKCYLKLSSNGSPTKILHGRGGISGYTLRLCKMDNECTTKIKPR
Source text: Biological Example 1: Factor XIa Inhibition Assay Utilizing a Fluorophore-Quencher Pair Peptide Substrate A fluorescence intensity (FLINT) based assay was used to monitor inhibition of Factor XIa. The peptide substrate, 5Fam-[…]-K5Tamra (purchased from New England Peptide) was chosen based on the FXI sequence. Conversion of zymogen FXI to its activated form, FXIa, occurs by proteolytic cleavage by […] at two sites, Arg146 and Arg180. The custom peptide used in this assay was based on the Arg146 cleavage site of FXI. The peptide substrate was designed with a fluorophore-quencher pair, where the fluorescence is quenched until FXIa cleaves the 8-mer peptide after the Arg residue.
The Factor XIa FLINT assay was used with the following 5Fam-[…]-K5Tamra assay buffer: 50 mM Tris, pH 7.5, 100 mM NaCl, 5 mM CaCl2, 0.1 mg/mL BSA, 0.03% CHAPS. Assay buffer was prepared by mixing all ingredients fresh. 5Fam-[…]-K5Tamra peptide substrate was first prepared at 10 mM in 100% DMSO, then diluted to 3 mM in 100% DMSO. Assay buffer was then added directly to the 3 mM stock of substrate to prepare the 30 μM 2× working concentration (15 μM final concentration). The 2× Factor XIa stock solution was prepared by diluting 6.562 μM stock in 1× assay buffer for a […].
Test compound(s) were run in an 11-point, 3-fold serial dilution with a final top compound concentration of 100 nM. Final DMSO in assay was 2%. FXIa was preincubated with compound for 30-minutes and then substrate was added to initiate the reaction. The assay was run with kinetic (KIN) reads at 5 min intervals over 30 minutes. […] More specifically, the assay was run as follows: • 100 nL of 0.01 mM test compound was dispensed into black 384-well non-binding Greiner BioOne 784900 plate for 0.1 μM final concentration; • 5 μL of 1× assay buffer was dispensed to column 24 (low control) and 5 μL 2× Factor XIa solution was dispensed to columns 1-23 (column 23 high control); • the plate was centrifuged with a “cover” plate at 500 rpm for 1 min • the plate was pre-incubated for 30 minutes at room temperature with plate covered; • 5 μL of 2×5Fam-[…]-K5Tamra peptide substrate was dispensed into the entire plate, columns 1-24; • the plate was centrifuged with a “cover” plate at 500 rpm for 1 min; • the plate was read monitoring fluorescence intensity on the BMG PHERAStar at room temperature, using fluorescence module 485 nm/520 nm.
as §1
% inhibition=((HC−LC)−(compound−LC)/(HC−LC))*100 where LC−low control=mean signal of no Factor XIa or 100% inhibition of Factor XIa; HC−high control=mean signal of Factor XIa+5Fam-[…]-K5Tamra peptide substrate with DMSO only.
as §2
Y=Bottom+(Top−Bottom)/(1+10^((log IC50−X)*HillSlope)) where Y is the % inhibition in the presence of X inhibitor concentration, Top=high control=mean signal of Factor XIa+5Fam-[…]-K5Tamra peptide substrate with DMSO only; Bottom=low control−mean signal of no Factor XIa or 100% inhibition of Factor XIa; HillSlope−Hill coefficient; and IC50=concentration of compound with 50% inhibition in relation to top/high control.

Where two headings read alike, the source gives them in different places.

human plasma kallikrein, sequence (P03952 391-638 limits assumed): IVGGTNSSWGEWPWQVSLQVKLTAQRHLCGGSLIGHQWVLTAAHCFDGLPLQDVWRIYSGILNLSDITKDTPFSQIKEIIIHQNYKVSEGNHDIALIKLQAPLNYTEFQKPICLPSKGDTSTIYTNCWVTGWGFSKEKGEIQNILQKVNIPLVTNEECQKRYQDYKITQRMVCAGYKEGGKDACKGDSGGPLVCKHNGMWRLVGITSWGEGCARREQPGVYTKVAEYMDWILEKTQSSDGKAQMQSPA
human plasma kallikrein, sequence (P03952 20-390 partner limits assumed): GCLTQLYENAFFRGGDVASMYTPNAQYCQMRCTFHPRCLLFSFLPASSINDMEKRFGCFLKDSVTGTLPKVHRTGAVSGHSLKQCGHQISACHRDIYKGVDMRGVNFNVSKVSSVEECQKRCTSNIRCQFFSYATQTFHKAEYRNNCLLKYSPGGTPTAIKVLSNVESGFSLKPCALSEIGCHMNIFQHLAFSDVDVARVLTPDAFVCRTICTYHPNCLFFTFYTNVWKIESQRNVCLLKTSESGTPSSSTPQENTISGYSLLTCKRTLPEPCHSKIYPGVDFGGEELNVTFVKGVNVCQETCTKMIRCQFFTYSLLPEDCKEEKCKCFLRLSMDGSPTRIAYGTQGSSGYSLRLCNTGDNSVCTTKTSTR

Take `C[C@H]1C[C@H](c2ncc(-c3ccnc(N)c3F)[nH]2)n2c1nc(-c1c(-n3cnnn3)ccc(Cl)c1F)cc2=O` (relative stereo) [Example 87, (6R*,8S*)-6-(5-(2-amino-3-fluoropyridin-4-yl)-1H-imidazol-2-yl)-2-(3-chloro-2-fluoro-6-(1H-tetrazol-1-yl)phenyl)-8-methyl-7,8-dihydropyrrolo[1,2-a]pyrimidin-4(6H)-one]: the IC50 was found to be 27.7 nM on human plasma kallikrein (values in nM) and 1.5 nM on Factor XIa (values in nM).

Consider `C[C@H]1C[C@@H](c2ncc(-c3ccnc(N)c3F)[nH]2)n2c1nc(-c1c(-n3cnnn3)ccc(Cl)c1F)cc2=O` (relative stereo) [Example 88, (6*S,8*S)-6-(5-(2-Amino-3-fluoropyridin-4-yl)-1H-imidazol-2-yl)-2-(3-chloro-2-fluoro-6-(1H-tetrazol-1-yl)phenyl)-8-methyl-7,8-dihydropyrrolo[1,2-a]pyrimidin-4(6H)-one], for which the IC50 on human plasma kallikrein (values in nM) turned out to be 14.5 nM; at Factor XIa (values in nM), 2.6 nM.

`C[C@H]1C[C@H](c2ncc(-c3ncc(N)nc3C3CC3)[nH]2)n2c1nc(-c1c(-n3cnnn3)ccc(Cl)c1F)cc2=O` (relative stereo) [Example 90, (6*R,8*S)-6-(5-(5-Amino-3-cyclopropylpyrazin-2-yl)-1H-imidazol-2-yl)-2-(3-chloro-2-fluoro-6-(1H-tetrazol-1-yl)phenyl)-8-methyl-7,8-dihydropyrrolo[1,2-a]pyrimidin-4(6H)-one]: the values for the IC50 at human plasma kallikrein (values in nM) and at Factor XIa (values in nM) were 298 nM and 21.4 nM, respectively.

In the case of `C[C@H]1C[C@@H](c2ncc(-c3ncc(N)nc3C3CC3)[nH]2)n2c1nc(-c1c(-n3cnnn3)ccc(Cl)c1F)cc2=O` (relative stereo) [Example 91, (6*S,8*S)-6-(5-(5-Amino-3-cyclopropylpyrazin-2-yl)-1H-imidazol-2-yl)-2-(3-chloro-2-fluoro-6-(1H-tetrazol-1-yl)phenyl)-8-methyl-7,8-dihydropyrrolo[1,2-a]pyrimidin-4(6H)-one], the IC50 at human plasma kallikrein (values in nM) was found to be 168 nM; on Factor XIa (values in nM), 39 nM.

With `C[C@@H]1C[C@@H](c2ncc(-c3ccc4c(=O)cc[nH]c4c3)[nH]2)n2c1nc(-c1c(-n3cnnn3)ccc(Cl)c1F)cc2=O` (relative stereo) [Example 101, 7-(2-((6S,8R)-2-(3-Chloro-2-fluoro-6-(1H-tetrazol-1-yl)phenyl)-8-methyl-4-oxo-4,6,7,8-tetrahydropyrrolo[1,2-a]pyrimidin-6-yl)-1H-imidazol-5-yl)quinolin-4(1H)-one], the figures for the IC50 on human plasma kallikrein (unit μM) and on Factor XIa (values in nM) were 1300 nM and 321 nM, respectively.

For the molecule `C[C@H]1C[C@@H](c2ncc(-c3ccc4c(=O)cc[nH]c4c3)[nH]2)n2c1nc(-c1c(-n3cnnn3)ccc(Cl)c1F)cc2=O` (relative stereo) [Example 102, 7-(2-((6*S,8*S)-2-(3-Chloro-2-fluoro-6-(1H-tetrazol-1-yl)phenyl)-8-methyl-4-oxo-4,6,7,8-tetrahydropyrrolo[1,2-a]pyrimidin-6-yl)-1H-imidazol-5-yl)quinolin-4(1H)-one], the IC50 is 446 nM on human plasma kallikrein (values in nM) and 18.2 nM at Factor XIa (values in nM).

For the molecule `COc1nccc(-c2cnc([C@@H]3C[C@H](C)c4nc(-c5c(-n6cnnn6)ccc(Cl)c5F)cc(=O)n43)[nH]2)n1` (relative stereo) [Example 103, (6S,8S)-2-(3-chloro-2-fluoro-6-(1H-tetrazol-1-yl)phenyl)-6-(5-(2-methoxypyrimidin-4-yl)-1H-imidazol-2-yl)-8-methyl-7,8-dihydropyrrolo[1,2-a]pyrimidin-4(6H)-one], the figures for the IC50 on human plasma kallikrein (values in nM) and on Factor XIa (values in nM) were 151 nM and 63.4 nM, respectively.

Take `COc1nccc(-c2cnc([C@H]3C[C@H](C)c4nc(-c5c(-n6cnnn6)ccc(Cl)c5F)cc(=O)n43)[nH]2)n1` (relative stereo) [Example 104, (6*R,8*S)-2-(3-Chloro-2-fluoro-6-(1H-tetrazol-1-yl)phenyl)-6-(5-(2-methoxypyrimidin-4-yl)-1H-imidazol-2-yl)-8-methyl-7,8-dihydropyrrolo[1,2-a]pyrimidin-4(6H)-one]: the half-inhibitory concentration (IC50) on human plasma kallikrein (values in nM) was found to be 115 nM; at Factor XIa (values in nM) it was 113 nM.

On to `C[C@@H]1C[C@H](c2ncc(-c3cnns3)[nH]2)n2c1nc(-c1c(-n3cnnn3)ccc(Cl)c1F)cc2=O` (relative stereo) [Example 105, (6*R,8*R)-6-(5-(1,2,3-Thiadiazol-5-yl)-1H-imidazol-2-yl)-2-(3-chloro-2-fluoro-6-(1H-tetrazol-1-yl)phenyl)-8-methyl-7,8-dihydropyrrolo[1,2-a]pyrimidin-4(6H)-one], for which the IC50 at human plasma kallikrein (unit μM) and at Factor XIa (unit μM) was > 10000 nM in each case.

Regarding `C[C@H]1C[C@H](c2ncc(-c3cnns3)[nH]2)n2c1nc(-c1c(-n3cnnn3)ccc(Cl)c1F)cc2=O` (relative stereo) [Example 106, (6*R,8*S)-6-(5-(1,2,3-Thiadiazol-5-yl)-1H-imidazol-2-yl)-2-(3-chloro-2-fluoro-6-(1H-tetrazol-1-yl)phenyl)-8-methyl-7,8-dihydropyrrolo[1,2-a]pyrimidin-4(6H)-one], the results for the IC50 at human plasma kallikrein (unit μM) and at Factor XIa (values in nM) were 6400 nM and 933 nM, respectively.

As for `Cc1nc(N)c(F)cc1-c1cnc([C@H]2C[C@H](C)c3nc(-c4c(-n5cnnn5)ccc(Cl)c4F)cc(=O)n32)[nH]1` (relative stereo) [Example 129, (6*R,8*S)-6-(5-(6-Amino-5-fluoro-2-methylpyridin-3-yl)-1H-imidazol-2-yl)-2-(3-chloro-2-fluoro-6-(1H-tetrazol-1-yl)phenyl)-8-methyl-7,8-dihydropyrrolo[1,2-a]pyrimidin-4(6H)-one], the IC50 at human plasma kallikrein (unit μM) is 1600 nM; on Factor XIa (values in nM), 168 nM.
